In patent US7138361B2, “Herbicidal heterocycles” (E. I. du Pont de Nemours and Company, priority 2000, dated 2006):

How the values were obtained:
Type in all cases: in vivo
[1] = system: Surinam grass (Brachiaria decumbens); experiment: Test B postemergence; settings: 13 to 15 days
How it was run: (§1)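 Visual injury scores, 0 = no effect to 100 = complete control, assigned against controls after 13 to 15 days in the greenhouse. Compounds formulated in non-phytotoxic solvent plus surfactant and applied to soil after planting (pre) or onto foliage of 1- to 4-leaf plants (post).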

[2] = system: barnyardgrass (Echinochloa crus-galli); experiment: Test B postemergence; settings: 13 to 15 days
How it was run: as §1

[3] = system: blackgrass (Alopecurus myosuroides); experiment: Test B postemergence; settings: 13 to 15 days
How it was run: as §1

[4] = system: cocklebur (Xanthium strumarium); experiment: Test B postemergence; settings: 13 to 15 days
How it was run: as §1

corn (Zea mays) [5] = experiment: Test B postemergence; settings: 13 to 15 days
How it was run: as §1

[6] = system: crabgrass (Digitaria sanguinalis); experiment: Test B postemergence; settings: 13 to 15 days
How it was run: as §1

[7] = system: giant foxtail (Setaria faberii); experiment: Test B postemergence; settings: 13 to 15 days
How it was run: as §1

[8] = system: lambsquarters (Chenopodium album); experiment: Test B postemergence; settings: 13 to 15 days
How it was run: as §1

[9] = system: morning glory (Ipomoea hederacea); experiment: Test B postemergence; settings: 13 to 15 days
How it was run: as §1

[10] = system: pigweed (Amaranthus retroflexus); experiment: Test B postemergence; settings: 13 to 15 days
How it was run: as §1

[11] = system: velvetleaf (Abutilon theophrasti); experiment: Test B postemergence; settings: 13 to 15 days
How it was run: as §1

[12] = system: wheat (Triticum aestivum); experiment: Test B postemergence; settings: 13 to 15 days
How it was run: as §1

wild oat (Avena fatua) = experiment: Test B postemergence; settings: 13 to 15 days
How it was run: as §1

[13] = system: Surinam grass (Brachiaria decumbens); experiment: Test B preemergence; settings: scale 0 to 100, 0 no effect, 100 complete control
How it was run: as §1

[14] = system: barnyardgrass (Echinochloa crus-galli); experiment: Test B preemergence; settings: scale 0 to 100, 0 no effect, 100 complete control
How it was run: as §1

[15] = system: cocklebur (Xanthium strumarium); experiment: Test B preemergence; settings: scale 0 to 100, 0 no effect, 100 complete control
How it was run: as §1

corn (Zea mays) [16] = experiment: Test B preemergence; settings: scale 0 to 100, 0 no effect, 100 complete control
How it was run: as §1

[17] = system: crabgrass (Digitaria sanguinalis); experiment: Test B preemergence; settings: scale 0 to 100, 0 no effect, 100 complete control
How it was run: as §1

[18] = system: giant foxtail (Setaria faberii); experiment: Test B preemergence; settings: scale 0 to 100, 0 no effect, 100 complete control
How it was run: as §1

[19] = system: lambsquarters (Chenopodium album); experiment: Test B preemergence; settings: scale 0 to 100, 0 no effect, 100 complete control
How it was run: as §1

[20] = system: morning glory (Ipomoea hederacea); experiment: Test B preemergence; settings: scale 0 to 100, 0 no effect, 100 complete control
How it was run: as §1

[21] = system: pigweed (Amaranthus retroflexus); experiment: Test B preemergence; settings: scale 0 to 100, 0 no effect, 100 complete control
How it was run: as §1

rice (Oryza saliva) = experiment: Test B preemergence; settings: scale 0 to 100, 0 no effect, 100 complete control
How it was run: as §1

[22] = system: velvetleaf (Abutilon theophrasti); experiment: Test B preemergence; settings: scale 0 to 100, 0 no effect, 100 complete control
How it was run: as §1

Nightshade = experiment: Test C preemergence; settings: Rate 250 g/ha, visual evaluation after 12 to 14 days
Sunflower = experiment: Test C preemergence; settings: Rate 125 g/ha, scale 0 to 100, 0 no effect, 100 complete control
[23] = Rate 125 g/ha, scale 0 (no effect) to 100 (complete control)
[24] = Rate 500 g/ha, scale 0 to 100, 0 is no effect, 100 is complete control

CCC(CC)c1ccn(C2SCN(c3cccc(C(F)(F)F)c3)C2=O)n1 (stereo not shown) [Compound 25]
100: Plant response rating, Barnyardgrass [2, 23] | Plant response rating, Barnyardgrass [2, 24] | Plant response rating, Lambsquarters [8, 23] | Plant response rating, Lambsquarters [8, 24] | Plant response rating, Morningglory [9, 24] | Plant response rating, Pigweed [10, 24] | Plant response rating, Barnyardgrass ([14]; Preemergence, Rate 500 g/ha) | Plant response rating, Barnyardgrass ([14]; preemergence, Rate 125 g/ha) | Plant response rating, Crabgrass ([17]; Preemergence, Rate 500 g/ha) | Plant response rating, Crabgrass ([17]; preemergence, Rate 125 g/ha) | Plant response rating, Foxtail, Giant ([18]; Preemergence, Rate 500 g/ha) | Plant response rating, Foxtail, Giant ([18]; preemergence, Rate 125 g/ha) | Plant response rating, Lambsquarters ([19]; Preemergence, Rate 500 g/ha) | Plant response rating, Lambsquarters ([19]; preemergence, Rate 125 g/ha) | Plant response rating, Pigweed ([21]; Preemergence, Rate 500 g/ha) | Plant response rating, Pigweed ([21]; preemergence, Rate 125 g/ha)
0: Plant response rating, Surinam grass [1, 23] | Plant response rating, Blackgrass [3, 23] | Plant response rating, Blackgrass [3, 24] | Plant response rating, Corn (corn (Zea mays) [5]; [23]) | Plant response rating, Velvetleaf [11, 23] | Plant response rating, Wheat [12, 23] | Plant response rating, Wheat [12, 24] | Plant response rating, Wild Oat (wild oat (Avena fatua); [23]) | Plant response rating, Wild Oat (wild oat (Avena fatua); [24]) | Plant response rating, Cocklebur ([15]; Preemergence, Rate 500 g/ha) | Plant response rating, Cocklebur ([15]; preemergence, Rate 125 g/ha) | Plant response rating, Corn (corn (Zea mays) [16]; Preemergence, Rate 500 g/ha) | Plant response rating, Corn (corn (Zea mays) [16]; preemergence, Rate 125 g/ha) | Plant response rating, Morningglory ([20]; preemergence, Rate 125 g/ha) | Plant response rating, Rice (rice (Oryza saliva); Preemergence, Rate 500 g/ha) | Plant response rating, Rice (rice (Oryza saliva); preemergence, Rate 125 g/ha) | Plant response rating, Velvetleaf ([22]; Preemergence, Rate 500 g/ha) | Plant response rating, Velvetleaf ([22]; preemergence, Rate 125 g/ha)
90: Plant response rating, Crabgrass [6, 24] | Plant response rating, Morningglory [9, 23] | Plant response rating, Morningglory ([20]; Preemergence, Rate 500 g/ha) | Plant response rating (0 to 100), Nightshade (Nightshade)
80: Plant response rating, Foxtail, Giant [7, 24] | Plant response rating, Surinam grass ([13]; Preemergence, Rate 500 g/ha) | Plant response rating, Surinam grass ([13]; preemergence, Rate 125 g/ha)
20: Plant response rating, Foxtail, Giant [7, 23] | Plant response rating, Velvetleaf [11, 24]
70: Plant response rating, Cocklebur [4, 24] | Plant response rating, Pigweed [10, 23]
40: Plant response rating, Surinam grass [1, 24] | Plant response rating, Sunflower (Sunflower)
60: Plant response rating, Cocklebur [4, 23] | Plant response rating, Corn (corn (Zea mays) [5]; [24]) | Plant response rating, Crabgrass [6, 23]

CC(C)c1ccn(C2OCN(c3cccc(C(F)(F)F)c3)C2=O)n1 (stereo not shown) [Compound 27]
60: Plant response rating, Barnyardgrass [2, 24] | Plant response rating, Pigweed [10, 24]
20: Plant response rating, Surinam grass [1, 24] | Plant response rating, Barnyardgrass [2, 23] | Plant response rating, Crabgrass [6, 23] | Plant response rating, Sunflower (Sunflower)
10: Plant response rating, Corn (corn (Zea mays) [5]; [24])
50: Plant response rating, Lambsquarters [8, 23] | Plant response rating, Morningglory [9, 24]
30: Plant response rating, Cocklebur [4, 24] | Plant response rating, Foxtail, Giant [7, 24] | Plant response rating, Barnyardgrass ([14]; preemergence, Rate 125 g/ha)
100: Plant response rating, Barnyardgrass ([14]; Preemergence, Rate 500 g/ha) | Plant response rating, Lambsquarters ([19]; Preemergence, Rate 500 g/ha) | Plant response rating, Lambsquarters ([19]; preemergence, Rate 125 g/ha) | Plant response rating, Pigweed ([21]; Preemergence, Rate 500 g/ha) | Plant response rating, Pigweed ([21]; preemergence, Rate 125 g/ha)
90: Plant response rating, Lambsquarters [8, 24] | Plant response rating, Crabgrass ([17]; Preemergence, Rate 500 g/ha) | Plant response rating, Foxtail, Giant ([18]; Preemergence, Rate 500 g/ha)
40: Plant response rating, Crabgrass [6, 24] | Plant response rating, Pigweed [10, 23] | Plant response rating, Rice (rice (Oryza saliva); Preemergence, Rate 500 g/ha)
0: Plant response rating, Surinam grass [1, 23] | Plant response rating, Blackgrass [3, 23] | Plant response rating, Blackgrass [3, 24] | Plant response rating, Cocklebur [4, 23] | Plant response rating, Corn (corn (Zea mays) [5]; [23]) | Plant response rating, Foxtail, Giant [7, 23] | Plant response rating, Morningglory [9, 23] | Plant response rating, Velvetleaf [11, 23] | Plant response rating, Velvetleaf [11, 24] | Plant response rating, Wheat [12, 23] | Plant response rating, Wheat [12, 24] | Plant response rating, Wild Oat (wild oat (Avena fatua); [23]) | Plant response rating, Wild Oat (wild oat (Avena fatua); [24]) | Plant response rating, Surinam grass ([13]; Preemergence, Rate 500 g/ha) | Plant response rating, Surinam grass ([13]; preemergence, Rate 125 g/ha) | Plant response rating, Cocklebur ([15]; Preemergence, Rate 500 g/ha) | Plant response rating, Cocklebur ([15]; preemergence, Rate 125 g/ha) | Plant response rating, Corn (corn (Zea mays) [16]; Preemergence, Rate 500 g/ha) | Plant response rating, Corn (corn (Zea mays) [16]; preemergence, Rate 125 g/ha) | Plant response rating, Crabgrass ([17]; preemergence, Rate 125 g/ha) | Plant response rating, Foxtail, Giant ([18]; preemergence, Rate 125 g/ha) | Plant response rating, Morningglory ([20]; Preemergence, Rate 500 g/ha) | Plant response rating, Morningglory ([20]; preemergence, Rate 125 g/ha) | Plant response rating, Rice (rice (Oryza saliva); preemergence, Rate 125 g/ha) | Plant response rating, Velvetleaf ([22]; Preemergence, Rate 500 g/ha) | Plant response rating, Velvetleaf ([22]; preemergence, Rate 125 g/ha) | Plant response rating (0 to 100), Nightshade (Nightshade)
